{
  "source": "ChEMBL document CHEMBL3860108",
  "about": "“Substituent Effects on Drug-Receptor H-bond Interactions: Correlations Useful for the Design of Kinase Inhibitors” (J Med Chem, 2016)",
  "data": [
    {"biological_target": "T1, Serine/threonine-protein kinase TNNI3K (Homo sapiens, UniProt Q59H18)", "T1 sequence (Q59H18 whole entry)": "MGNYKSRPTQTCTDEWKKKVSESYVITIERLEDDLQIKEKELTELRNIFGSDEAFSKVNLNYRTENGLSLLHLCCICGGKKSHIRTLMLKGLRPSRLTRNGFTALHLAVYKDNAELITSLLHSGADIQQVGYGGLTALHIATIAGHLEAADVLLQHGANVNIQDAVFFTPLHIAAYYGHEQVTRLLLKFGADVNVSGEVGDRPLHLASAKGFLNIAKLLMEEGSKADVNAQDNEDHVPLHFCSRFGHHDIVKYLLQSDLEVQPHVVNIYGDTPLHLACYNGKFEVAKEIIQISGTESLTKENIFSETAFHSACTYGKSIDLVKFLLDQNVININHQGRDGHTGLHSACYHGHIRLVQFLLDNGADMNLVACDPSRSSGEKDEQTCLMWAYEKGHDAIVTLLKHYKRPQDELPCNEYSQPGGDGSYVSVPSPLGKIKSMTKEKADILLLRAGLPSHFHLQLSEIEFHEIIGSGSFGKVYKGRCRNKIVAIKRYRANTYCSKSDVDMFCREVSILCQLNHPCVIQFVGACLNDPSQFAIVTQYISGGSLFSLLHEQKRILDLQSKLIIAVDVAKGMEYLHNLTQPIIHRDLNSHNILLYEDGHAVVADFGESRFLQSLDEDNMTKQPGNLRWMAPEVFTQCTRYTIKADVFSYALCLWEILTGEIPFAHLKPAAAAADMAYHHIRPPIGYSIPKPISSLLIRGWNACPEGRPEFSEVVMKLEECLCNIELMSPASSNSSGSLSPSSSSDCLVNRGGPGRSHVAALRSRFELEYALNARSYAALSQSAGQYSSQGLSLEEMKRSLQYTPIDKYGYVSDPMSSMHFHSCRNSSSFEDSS", "assay": "Displacement of 5-({[2-({[3-({4-[(5-hydroxy-2-methylphenyl)amino]-2-pyrimidinyl}amino)phenyl]carbonyl}amino)-ethyl]amino}carbonyl)-2-(6-hydroxy-3-oxo-3H-xanthen-9-yl)benzoic acid from His6-MBP-TEV-full length human TNNI3K expressed in Baculovirus expression system after 60 mins by fluorescence polarization assay", "units": {"IC50": "nM"}, "values": [
      {"compound": "CNS(=O)(=O)c1ccc(OCC(F)(F)F)c(Nc2ncnc3[nH]ccc23)c1", "IC50": 16},
      {"compound": "CNS(=O)(=O)c1ccc(N2CCC[C@@H]2C(F)(F)F)c(Nc2cc(Nc3ccc(Cl)cc3)ncn2)c1", "IC50": 63},
      {"compound": "CCN(C)c1ccc(S(=O)(=O)NC)cc1Nc1ncnc2[nH]ccc12", "IC50": 32},
      {"compound": "CNS(=O)(=O)c1ccc(N2CCCCC2)c(Nc2ncnc3[nH]ccc23)c1", "IC50": 13},
      {"compound": "CCNc1ccc(S(=O)(=O)NC)cc1Nc1cc(Nc2ccc(Cl)cc2)ncn1", "IC50": 3200},
      {"compound": "CNS(=O)(=O)c1ccc(N2C(C)CCC2C)c(Nc2ncnc3[nH]ccc23)c1", "note": "(stereo not given)", "IC50": 20},
      {"compound": "CNS(=O)(=O)c1ccc(OC(F)(F)F)c(Nc2cc(Nc3ccc(Cl)cc3)ncn2)c1", "IC50": 32},
      {"compound": "CCOc1ccc(S(=O)(=O)NC)cc1Nc1cc(Nc2ccc(Cl)cc2)ncn1", "IC50": 50},
      {"compound": "CCCNc1ccc(S(=O)(=O)NC)cc1Nc1cc(Nc2ccc(Cl)cc2)ncn1", "IC50": 1600},
      {"compound": "CCOc1ccc(S(=O)(=O)NC)cc1Nc1ncnc2[nH]ccc12", "IC50": 32},
      {"compound": "CNS(=O)(=O)c1ccc(F)c(Nc2cc(Nc3ccc(Cl)cc3)ncn2)c1", "IC50": 200},
      {"compound": "CNS(=O)(=O)c1ccc(N2CCC(F)(F)C2)c(Nc2ncnc3[nH]ccc23)c1", "IC50": 130},
      {"compound": "CNS(=O)(=O)c1ccc(N2C(C)CCC2C)c(Nc2cc(Nc3ccc(Cl)cc3)ncn2)c1", "note": "(stereo not given)", "IC50": 80},
      {"compound": "CNS(=O)(=O)c1ccc(N(C)C)c(Nc2ncnc3[nH]cc(-c4ccco4)c23)c1", "IC50": "< 10"},
      {"compound": "CNS(=O)(=O)c1ccc(N(C)CC(F)(F)F)c(Nc2ncnc3[nH]ccc23)c1", "IC50": 10},
      {"compound": "CNS(=O)(=O)c1ccc(Cl)c(Nc2cc(Nc3ccc(Cl)cc3)ncn2)c1", "IC50": 130},
      {"compound": "CNS(=O)(=O)c1ccc(N2CCC(F)(F)C2)c(Nc2cc(Nc3ccc(Cl)cc3)ncn2)c1", "IC50": 1000},
      {"compound": "CNS(=O)(=O)c1ccc(N(C)C)c(Nc2ncnc3[nH]cnc23)c1", "IC50": 16},
      {"compound": "CNS(=O)(=O)c1ccc(N(C)CC(F)(F)F)c(Nc2cc(Nc3ccc(Cl)cc3)ncn2)c1", "IC50": 40},
      {"compound": "CNS(=O)(=O)c1ccc(N2CCCC2C)c(Nc2cc(Nc3ccc(Cl)cc3)ncn2)c1", "note": "(stereo not given)", "IC50": 250},
      {"compound": "CNS(=O)(=O)c1ccc(N(C)C)c(Nc2ncnc3[nH]c4ccccc4c23)c1", "IC50": 50},
      {"compound": "CNS(=O)(=O)c1cccc(Nc2cc(Nc3ccc(Cl)cc3)ncn2)c1", "IC50": 80},
      {"compound": "CNS(=O)(=O)c1ccc(F)c(Nc2ncnc3[nH]ccc23)c1", "IC50": 250},
      {"compound": "CCNc1ccc(S(=O)(=O)NC)cc1Nc1ncnc2[nH]ccc12", "IC50": 2500},
      {"compound": "CCCNc1ccc(S(=O)(=O)NC)cc1Nc1ncnc2[nH]ccc12", "IC50": 2500},
      {"compound": "CNS(=O)(=O)c1ccc(OC)c(Nc2cc(Nc3ccc(Cl)cc3)ncn2)c1", "IC50": 50},
      {"compound": "CNS(=O)(=O)c1ccc(N(C)C)c(Nc2ncnc3ccc([N+](=O)[O-])cc23)c1", "IC50": 2500},
      {"compound": "CNS(=O)(=O)c1ccc(N(C)C)c(Nc2ncnc3ccc(Cl)cc23)c1", "IC50": 400},
      {"compound": "CNS(=O)(=O)c1ccc(N)c(Nc2cc(Nc3ccc(Cl)cc3)ncn2)c1", "IC50": 800},
      {"compound": "CNS(=O)(=O)c1ccc(N2CCCC(F)(F)C2)c(Nc2ncnc3[nH]ccc23)c1", "IC50": "< 10"},
      {"compound": "CNS(=O)(=O)c1ccc(OC)c(Nc2ncnc3[nH]ccc23)c1", "IC50": 100},
      {"compound": "CNS(=O)(=O)c1ccc(SC)c(Nc2cc(Nc3ccc(Cl)cc3)ncn2)c1", "IC50": 400},
      {"compound": "CNS(=O)(=O)c1ccc(O)c(Nc2ncnc3[nH]ccc23)c1", "IC50": 40},
      {"compound": "CNS(=O)(=O)c1ccc(C)c(Nc2cc(Nc3ccc(Cl)cc3)ncn2)c1", "IC50": 160},
      {"compound": "CNS(=O)(=O)c1ccc(-c2ccccc2)c(Nc2ncnc3[nH]ccc23)c1", "IC50": 200},
      {"compound": "CNS(=O)(=O)c1ccc(O)c(Nc2cc(Nc3ccc(Cl)cc3)ncn2)c1", "IC50": 160},
      {"compound": "CNS(=O)(=O)c1ccc(N2CCCC2)c(Nc2ncnc3[nH]ccc23)c1", "IC50": 320},
      {"compound": "CNS(=O)(=O)c1ccc(N(C)C)c(Nc2ncnc3ncccc23)c1", "IC50": 5000},
      {"compound": "CNc1ccc(S(=O)(=O)NC)cc1Nc1cc(Nc2ccc(Cl)cc2)ncn1", "IC50": 2500},
      {"compound": "CNS(=O)(=O)c1ccc(SC)c(Nc2ncnc3[nH]ccc23)c1", "IC50": 130},
      {"compound": "CNS(=O)(=O)c1ccc(OCC(F)(F)F)c(Nc2cc(Nc3ccc(Cl)cc3)ncn2)c1", "IC50": 25},
      {"compound": "CNS(=O)(=O)c1ccc(N2CCCC2C)c(Nc2ncnc3[nH]ccc23)c1", "note": "(stereo not given)", "IC50": 130},
      {"compound": "CNS(=O)(=O)c1ccc(N(C)C)c(Nc2cc(Nc3ccc(Cl)cc3)ncn2)c1", "IC50": 80},
      {"compound": "CNS(=O)(=O)c1ccc(N2CCCC2)c(Nc2cc(Nc3ccc(Cl)cc3)ncn2)c1", "IC50": 1300},
      {"compound": "CCN(C)c1ccc(S(=O)(=O)NC)cc1Nc1cc(Nc2ccc(Cl)cc2)ncn1", "IC50": 63},
      {"compound": "CNS(=O)(=O)c1ccc(OC(F)(F)F)c(Nc2ncnc3[nH]ccc23)c1", "IC50": 50},
      {"compound": "CNS(=O)(=O)c1ccc(N(C)C)c(Nc2ncnc(Nc3ccc(Cl)cc3)n2)c1", "IC50": 10},
      {"compound": "CNS(=O)(=O)c1ccc(N2CCCC(F)(F)C2)c(Nc2cc(Nc3ccc(Cl)cc3)ncn2)c1", "IC50": 40}
    ]},
    {"biological_target": "Serine/threonine-protein kinase B-raf (Homo sapiens, UniProt P15056, V600E)", "sequence (P15056 2-766 V600E limits assumed)": "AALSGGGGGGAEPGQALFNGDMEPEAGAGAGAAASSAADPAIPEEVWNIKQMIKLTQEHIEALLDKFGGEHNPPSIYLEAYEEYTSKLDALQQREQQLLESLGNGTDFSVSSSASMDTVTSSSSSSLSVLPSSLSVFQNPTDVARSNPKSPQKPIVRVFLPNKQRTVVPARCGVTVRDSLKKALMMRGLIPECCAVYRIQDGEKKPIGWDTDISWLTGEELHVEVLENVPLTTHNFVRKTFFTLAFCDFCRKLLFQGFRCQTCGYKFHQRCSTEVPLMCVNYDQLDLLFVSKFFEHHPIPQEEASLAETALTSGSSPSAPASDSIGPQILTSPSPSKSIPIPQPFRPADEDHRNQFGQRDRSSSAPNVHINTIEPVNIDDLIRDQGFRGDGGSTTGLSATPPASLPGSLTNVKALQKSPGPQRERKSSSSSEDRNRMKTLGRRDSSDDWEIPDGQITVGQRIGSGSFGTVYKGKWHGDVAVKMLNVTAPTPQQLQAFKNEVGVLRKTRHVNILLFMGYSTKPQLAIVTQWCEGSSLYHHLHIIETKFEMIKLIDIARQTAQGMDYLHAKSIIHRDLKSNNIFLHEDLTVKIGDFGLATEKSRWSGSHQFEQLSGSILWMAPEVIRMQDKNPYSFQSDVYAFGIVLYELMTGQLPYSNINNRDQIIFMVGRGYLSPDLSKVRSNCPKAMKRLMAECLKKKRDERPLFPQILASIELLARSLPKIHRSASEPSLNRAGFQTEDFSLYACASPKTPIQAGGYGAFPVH", "assay": "Inhibition of His6-tagged full length BRAF V600E mutant (2 to 766 residues) (unknown origin) expressed in Baculovirus expression system by BRAMA method", "units": {"IC50": "nM"}, "values": [
      {"compound": "CNS(=O)(=O)c1ccc(N(C)C)c(Nc2ncnc3ccc([N+](=O)[O-])cc23)c1", "IC50": 6300},
      {"compound": "CNS(=O)(=O)c1ccc(N(C)C)c(Nc2ncnc3ccc(Cl)cc23)c1", "IC50": 400}
    ]}
  ]
}
